The values below come from patent US8383647B2, “Quinoline derivative” (Takeda Pharmaceutical Company Limited, priority 2009, dated 2013).

Data set [1] concerns HepG2 cells. As to the kind of experiment: Evaluation of PLsis (NBD-PE uptake). The class given is cell-based. The settings on record: 24 hr exposure, relative to 10 μM Amiodarone, maximum value per unit concentration. The method, then: DMEM medium, L-glutamine, penicillin-streptomycin, pyruvic acid, and N-(7-nitrobenz-2-oxa-1,3-diazol-4-yl)-1,2-hexadecanoyl-sn-glycero-3-phosphoethanolamine triethylammonium salt (NBD-PE) were purchased from Invitrogen Corporation. As bovine serum albumin (BSA), a product of Thermo Trace Ltd. (Melbourne, Australia) was used, and as Amiodarone, a product of ICN (Costa Mesa, Calif.) was used. A test compound was used in the form of a 10 mM DMSO solution.
FBS was added at a final concentration of 5 vol % to DMEM medium supplemented with L-glutamine, pyruvic acid and penicillin-streptomycin and subjected to the experiment. Culture was performed using 5% carbon dioxide gas-95% air as a gas phase in a CO2 incubator at 37° C. HepG2 cells were suspended in a culture medium at 50×10^4 cells/mL, plated in a 96 well plate at 50 μL/well and precultured for 24 hr. After preculture, the culture medium was removed, a culture medium containing 60 μm NBD-PE was added at 50 μL/well, and a culture medium containing 0, 6 μM or 20 μM test compounds were each added at 50 μL/well to HepG2 cells, and the cells were cultured for 24 hr. As a positive control, Amiodarone was used at a final concentration of 10 μM.
After exposure to the test compound for 24 hr, the fluorescence intensity (Ex. 485 nm, Em. 538 nm) of NBD-PE uptaken by the cells was measured by a fluorometer. The measurement value with addition of 0 μM test compound solution was subtracted as a blank, a relative value to the measurement value with addition of 10 μm Amiodarone was calculated, and the maximum value per unit concentration of the test compound was obtained as a phospholipidosis (PLsis) induction potential.

In data set [2] the target is T1, HERG (Homo sapiens, UniProt Q12809).
T1 construct: host or cells: HERG.T.HEK (HEK cells, Geneticin-selected)
T1 sequence (Q12809 whole entry): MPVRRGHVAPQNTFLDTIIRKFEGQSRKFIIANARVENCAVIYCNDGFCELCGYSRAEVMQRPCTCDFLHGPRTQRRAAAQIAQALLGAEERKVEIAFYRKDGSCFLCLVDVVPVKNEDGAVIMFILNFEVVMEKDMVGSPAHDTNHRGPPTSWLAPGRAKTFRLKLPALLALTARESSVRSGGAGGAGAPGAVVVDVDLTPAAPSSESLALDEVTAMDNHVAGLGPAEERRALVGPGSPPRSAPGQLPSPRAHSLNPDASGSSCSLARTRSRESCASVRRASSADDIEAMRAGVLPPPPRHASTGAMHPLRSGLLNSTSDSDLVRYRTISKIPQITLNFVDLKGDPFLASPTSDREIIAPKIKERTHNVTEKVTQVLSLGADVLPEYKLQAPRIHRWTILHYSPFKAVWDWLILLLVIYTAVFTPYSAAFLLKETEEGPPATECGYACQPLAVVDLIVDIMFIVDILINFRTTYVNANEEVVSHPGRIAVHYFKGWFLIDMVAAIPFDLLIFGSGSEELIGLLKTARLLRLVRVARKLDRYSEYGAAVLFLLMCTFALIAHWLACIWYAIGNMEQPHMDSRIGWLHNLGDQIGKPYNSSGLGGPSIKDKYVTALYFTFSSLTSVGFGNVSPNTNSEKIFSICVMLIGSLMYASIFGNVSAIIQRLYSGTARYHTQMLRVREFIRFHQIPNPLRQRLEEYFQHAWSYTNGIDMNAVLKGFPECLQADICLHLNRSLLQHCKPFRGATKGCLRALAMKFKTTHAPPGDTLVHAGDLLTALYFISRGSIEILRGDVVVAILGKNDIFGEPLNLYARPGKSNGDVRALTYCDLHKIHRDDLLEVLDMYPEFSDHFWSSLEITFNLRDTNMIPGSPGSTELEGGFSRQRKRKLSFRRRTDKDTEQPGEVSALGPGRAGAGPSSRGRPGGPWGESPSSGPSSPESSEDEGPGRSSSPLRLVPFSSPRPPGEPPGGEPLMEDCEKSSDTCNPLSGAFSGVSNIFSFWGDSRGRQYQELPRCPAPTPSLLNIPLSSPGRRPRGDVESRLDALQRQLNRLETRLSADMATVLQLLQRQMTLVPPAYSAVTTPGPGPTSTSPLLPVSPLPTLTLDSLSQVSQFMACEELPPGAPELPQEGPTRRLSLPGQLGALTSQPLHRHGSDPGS
As to the kind of experiment: Evaluation of HERG inhibitory activity (whole-cell patch clamp, HERG.T.HEK cells). The class given is cell-based. As to conditions: peak tail current. The source says:
MEM medium, MEM nonessential amino acid solution, sodium pyruvate solution and G418 sulfate solution (Geneticin) were purchased from Invitrogen Corporation (Carlsbad, Calif.). Bovine serum albumin (BSA, Fatty Acid Free) was a product of Wako Pure Chemical Industries, Ltd. (Osaka, Japan). Fetal bovine serum (FCS) was a product of Trau Scientific Ltd. (Melbourne, Australia).
As HERG expression cell HERG.T.HEK, the cell obtained from Wisconsin ALUMNI Research Foundation was used. HERG.T.HEK was maintained and passaged at 37° C. in the presence of 5% CO2 using an MEM medium containing 10% FCS, 1 mM MEM nonessential amino acid, 1 mM sodium pyruvate and 500 μg/ml Geneticin.
80-90% confluent cells were collected by a trypsin treatment and plated on an IVF dish (Falcon, Franklin Lakes, N.J.). After 2-3 hr, cells were adhered to a glass electrode (resistance value 2-3 MΩ) filled with an electrode internal fluid (7 mM NaCl, 130 mM KCl, 1 mM MgCl2, 5 mM HEPES, 5 mM EGTA, 5 mM ATP-Na: pH 7.2) while perfusing with an extracellular fluid (137 mM NaCl, 4 mM KCl, 1 mM MgCl2, 1.8 mM CaCl2, 10 mM HEPES, 11 mM dextrose: pH 7.4), using a patch clamp amplifier AXOPATCH 200B (Axon instruments, Foster City, Calif.), whereby formation of whole-cell configuration and stimulation by voltage clamp protocol were performed (holding potential −75 mV, primary voltage 10 mV: 0.5 sec, secondary voltage −40 mV: 0.5 sec, stimulation frequency 5 sec (Example 31 and Example 50) or 10 sec (Comparative Example 1 and Comparative Example 2). A preliminary stimulation was applied and the HERG electric current value (peak tail current) was measured when the electric current waveform was stabilized.
For measurement of the HERG electric current with addition of the test compound, the cells were first perfused with the extracellular fluid and, when the waveform was stabilized, the cells were perfused with an extracellular fluid containing 10 μm of a test compound. When the electric current waveform was stabilized under respective perfuse conditions, the HERG electric current was measured.
The HERG electric current inhibitory rate (%) of the test compound was calculated with the HERG electric current value without addition of the test compound as 100%.

Data set [3] has as its target rat SLC-1 (Rattus norvegicus, UniProt P97639). As to the kind of experiment: MCH receptor antagonistic activity (inhibitory activity, Experimental Example 1). Format: biochemical.
In data set [4] the target is human SLC-1 (Homo sapiens, UniProt Q99705). The description is as above. The class given is biochemical.
Chain of human SLC-1 (Q99705 whole entry): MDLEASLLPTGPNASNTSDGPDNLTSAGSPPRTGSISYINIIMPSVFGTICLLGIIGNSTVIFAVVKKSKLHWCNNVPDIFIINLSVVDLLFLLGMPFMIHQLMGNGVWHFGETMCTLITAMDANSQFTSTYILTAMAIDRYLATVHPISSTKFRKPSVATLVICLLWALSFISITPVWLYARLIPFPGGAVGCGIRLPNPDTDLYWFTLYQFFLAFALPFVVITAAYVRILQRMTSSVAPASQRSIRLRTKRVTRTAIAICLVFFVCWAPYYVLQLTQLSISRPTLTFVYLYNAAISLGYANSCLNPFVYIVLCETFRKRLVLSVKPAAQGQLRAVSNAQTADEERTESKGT

Chain of rat SLC-1 (P97639 whole entry): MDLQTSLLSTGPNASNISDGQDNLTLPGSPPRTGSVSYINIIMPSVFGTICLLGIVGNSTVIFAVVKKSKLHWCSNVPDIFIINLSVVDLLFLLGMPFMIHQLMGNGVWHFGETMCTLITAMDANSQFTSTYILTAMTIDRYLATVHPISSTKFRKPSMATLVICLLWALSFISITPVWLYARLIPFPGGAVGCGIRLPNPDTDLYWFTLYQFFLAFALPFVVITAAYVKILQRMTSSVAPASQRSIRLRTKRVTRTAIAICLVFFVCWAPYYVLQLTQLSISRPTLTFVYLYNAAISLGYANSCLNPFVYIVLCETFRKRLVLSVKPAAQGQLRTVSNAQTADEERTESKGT

Regarding `Cc1c(NC(=O)c2ccc(OCC3CC3)cc2)ccc2cc(CN[C@H]3CC[C@H](O)CC3)cnc12` [Com. Ex. 1, 4-(cyclopropylmethoxy)-N-[3-[[(trans-4-hydroxycyclohexyl)amino]methyl]-8-methylquinolin-7-yl]benzamide, reference compound], the PLsis induction potential in data set [1] was 23.5. For the same compound, the “HERG electric current inhibitory rate (%) of 10 μM compound” value in data set [2] was determined as 58%.

For orientation: melting point means the temperature of the solid-liquid transition. What is called IC50 is the concentration needed to halve the response being measured. A high value points to weaker potency in that assay. `Cc1c(NC(=O)c2ccc(OC[C@@H]3CCCO3)cc2)ccc2cc(CN[C@H]3CC[C@H](O)CC3)cnc12` [Example 48, N-(3-{[(trans-4-hydroxycyclohexyl)amino]methyl}-8-methylquinolin-7-yl)-4-[(2S)-tetrahydrofuran-2-ylmethoxy]benzamide]: the melting point was 183 to 184 °C. Further, half-maximal inhibition in data set [3] (IC50) was put at 8.3 nM. The IC50 in data set [4] was determined as 9.1 nM.

As to `Cc1c(NC(=O)c2ccc(OC[C@@H]3CCCO3)cc2)ccc2cc(CNCCOC(C)C)cnc12` [Example 49, N-[8-methyl-3-({[2-(1-methylethoxy)ethyl]amino}methyl)quinolin-7-yl]-4-[(2S)-tetrahydrofuran-2-ylmethoxy]benzamide], the melting point fell in the range of 111 to 113 °C. Besides, inhibition in data set [3] was half-maximal at 7.2 nM (IC50). In data set [4], this compound showed an IC50 of 4.8 nM.

In the case of `Cc1c(NC(=O)c2ccc(OC[C@@H]3CCCO3)cc2)ccc2cc(CN[C@H]3CC[C@@](C)(O)CC3)cnc12` [Example 52, N-(3-{[(cis-4-hydroxy-4-methylcyclohexyl)amino]methyl}-8-methylquinolin-7-yl)-4-[(2S)-tetrahydrofuran-2-ylmethoxy]benzamide], the melting point was 159 to 161 °C. In data set [3], this compound showed an IC50 of 9.5 nM. This compound also showed an IC50 in data set [4] of 6.5 nM.

Turning to `CCC(CC)NCc1cnc2c(C)c(NC(=O)c3ccc(OC[C@@H]4CCCO4)cc3)ccc2c1` [Example 54, N-(3-{[(1-ethylpropyl)amino]methyl}-8-methylquinolin-7-yl)-4-[(2S)-tetrahydrofuran-2-ylmethoxy]benzamide], the melting point lay within 113 to 115 °C. Half-maximal inhibition in data set [3] (IC50) was put at 6.1 nM. Further, the IC50 in data set [4] worked out at 5.5 nM.

In turn, `CC[C@@H](C)NCc1cnc2c(C)c(NC(=O)c3ccc(OC[C@@H]4CCCO4)cc3)ccc2c1` [Example 55, N-[8-methyl-3-({[(1R)-1-methylpropyl]amino}methyl)quinolin-7-yl]-4-[(2S)-tetrahydrofuran-2-ylmethoxy]benzamide] yielded a melting point of 118 to 119 °C. The compound further returned an IC50 in data set [3] of 8.8 nM. In data set [4], the IC50 worked out at 6.8 nM.

In turn, `CC[C@H](C)NCc1cnc2c(C)c(NC(=O)c3ccc(OC[C@@H]4CCCO4)cc3)ccc2c1` [Example 56, N-[8-methyl-3-({[(1S)-1-methylpropyl]amino}methyl)quinolin-7-yl]-4-[(2S)-tetrahydrofuran-2-ylmethoxy]benzamide] yielded a melting point of 122 to 123 °C. Further, the IC50 in data set [3] was 9.1 nM. Also, in data set [4], the IC50 was 6.4 nM.

For `Cc1c(NC(=O)c2ccc(OC[C@@H]3CCCO3)cc2)ccc2cc(CNC3CCC3)cnc12` [Example 57, N-{3-[(cyclobutylamino)methyl]-8-methylquinolin-7-yl}-4-[(2S)-tetrahydrofuran-2-ylmethoxy]benzamide], the melting point is 142 to 144 °C. Besides, the IC50 in data set [3] stood at 17 nM. This compound also registered an IC50 in data set [4] of 9.8 nM.

With `Cc1c(NC(=O)c2ccc(OC[C@@H]3CCCO3)cc2)ccc2cc(CN[C@H](C)C(C)(C)C)cnc12` [Example 58, N-[8-methyl-3-({[(1R)-1,2,2-trimethylpropyl]amino}methyl)quinolin-7-yl]-4-[(2S)-tetrahydrofuran-2-ylmethoxy]benzamide], the melting point lay within 140 to 141 °C. In data set [3], the IC50 amounted to 11 nM. In data set [4], the IC50 was determined as 6.8 nM.

Take `Cc1c(NC(=O)c2ccc(OCC3CCOC3)cc2)ccc2cc(CNCC(C)(C)C)cnc12` (centres unmarked) [Example 62, N-(3-{[(2,2-dimethylpropyl)amino]methyl}-8-methylquinolin-7-yl)-4-(tetrahydrofuran-3-ylmethoxy)benzamide]: the melting point stood at 129 °C. The compound further showed an IC50 in data set [3] of 2.7 nM. The same compound returned an IC50 in data set [4] of 2.2 nM.

On to `Cc1c(NC(=O)c2ccc(OCC3CCOC3)cc2)ccc2cc(CNCC3CCOCC3)cnc12` (centres unmarked) [Example 63, N-(8-methyl-3-{[(tetrahydro-2H-pyran-4-ylmethyl)amino]methyl}quinolin-7-yl)-4-(tetrahydrofuran-3-ylmethoxy)benzamide], for which the melting point fell in the range of 122 to 123 °C. The IC50 in data set [3] is 4.5 nM. Besides, the IC50 in data set [4] was 3.7 nM.

For the compound `Cc1c(NC(=O)c2ccc(OC[C@@H]3CCCO3)cc2F)ccc2cc(CNCC(C)(C)O)cnc12` [Example 67, 2-fluoro-N-(3-{[(2-hydroxy-2-methylpropyl)amino]methyl}-8-methylquinolin-7-yl)-4-[(2S)-tetrahydrofuran-2-ylmethoxy]benzamide], the melting point is 167 to 168 °C. Besides, in data set [3], half-maximal inhibition (IC50) was put at 11 nM. This compound also had an IC50 in data set [4] of 7.8 nM.

Compound `Cc1c(NC(=O)c2ccc(OC[C@@H]3CCCO3)cc2F)ccc2cc(CNCC(C)(C)C)cnc12` [Example 68, N-(3-{[(2,2-dimethylpropyl)amino]methyl}-8-methylquinolin-7-yl)-2-fluoro-4-[(2S)-tetrahydrofuran-2-ylmethoxy]benzamide] had a melting point of 134 to 135 °C. Besides, half-maximal inhibition in data set [3] (IC50) required 2.8 nM. Moreover, in data set [4], the IC50 was 3.1 nM.

Consider `Cc1c(NC(=O)c2ccc(OC[C@@H]3CCCO3)cc2F)ccc2cc(CN[C@H]3CC[C@](C)(O)CC3)cnc12` [Example 69, 2-fluoro-N-(3-{[(trans-4-hydroxy-4-methylcyclohexyl)amino]methyl}-8-methylquinolin-7-yl)-4-[(2S)-tetrahydrofuran-2-ylmethoxy]benzamide], for which the melting point fell in the range of 171 to 172 °C. Also, in data set [3], the IC50 was determined as 7.1 nM. For the same compound, in data set [4], the IC50 came to 6.1 nM.

The compound `Cc1c(NC(=O)c2ccc(OC[C@@H]3CCCO3)cc2F)ccc2cc(CNCC(C)C)cnc12` [Example 70, 2-fluoro-N-(8-methyl-3-{[(2-methylpropyl)amino]methyl}quinolin-7-yl)-4-[(2S)-tetrahydrofuran-2-ylmethoxy]benzamide] registered a melting point of 133 to 134 °C. Also, the concentration for half-maximal inhibition (IC50) in data set [3] amounted to 3.2 nM. The compound further showed an IC50 in data set [4] of 2.7 nM.

As for `CCCNCc1cnc2c(C)c(NC(=O)c3ccc(OC[C@@H]4CCCO4)cc3F)ccc2c1` [Example 71, 2-fluoro-N-{8-methyl-3-[(propylamino)methyl]quinolin-7-yl}-4-[(2S)-tetrahydrofuran-2-ylmethoxy]benzamide], the melting point fell in the range of 120 to 121 °C. This compound also returned an IC50 in data set [3] of 8 nM. This compound yielded an IC50 in data set [4] of 5 nM.

The compound `Cc1c(NC(=O)c2ccc(OC[C@@H]3CCCO3)cc2)ccc2cc(CN3CCC(C)(O)CC3)cnc12` [Example 72, N-{3-[(4-hydroxy-4-methylpiperidin-1-yl)methyl]-8-methylquinolin-7-yl}-4-[(2S)-tetrahydrofuran-2-ylmethoxy]benzamide] gave a melting point of 169 to 174 °C. The compound also returned an IC50 in data set [3] of 4.3 nM. Further, in data set [4], the concentration for half-maximal inhibition (IC50) was 4.5 nM.
